A short description of one data set: Solubility. The data set is classed as physicochemical.
A short description of data set [1]: Anti-inflammatory activity, paw test (Domenjoz test). The data set is classed as in vivo, rat. The following applies: read-out: ED50 per os, acute anti-inflammatory activity (Domenjoz test). As to the method: 1a. Anti-inflammatory activity: this activity was measured by the paw test according to Doemnjoz, characterised in its carrying out by the following method:
To young rats of medium weight of 200 g there is administered by hypodermic injection into the right paw an aqueous suspension of carragheen at 1%, 1 hour after the oral administration of the drugs under investigation.
After two hours from the administration of the carragheen, the pawas are disjointed, weighed, and comparison is made between the injected paw, meanwhile swollen, and the paw not interfered with.
This evaluation is expressed both in mg/kg of animal weight and in micromoles/Kg of weight of the animal.

The nature of data set [2]: Irritant and ulceroid (gastrolesive) activity on the gastric mucosa. The following applies: in vivo, rat. As to the method: 4. Irritant and ulceroid activity on the gastric mucosa
The experimental evaluation of this activity was made on rats, by the method here reported:
The compound is administered orally to rats which have fasted for 12 hours, the animals being killed 4 hours after the administration.
Regarded as positive, i.e. with stomach damage, are those animals which have at least one haemorrhage point on the stomach wall.
By ED50 there is meant that dose of the drug which can […] in 50% of the animals treated, the formation of these haemorrhages.
In Table 6 there are compared CR 604 and Indometacin, since the latter is, amongst them all, the nearest to the anti-inflammatory activity values of CR 604.

Data set [3] in a line: Analgesic activity, phenylquinone test. The data set is classed as in vivo, rat. Conditions: read-out: ED50 per os, analgesic activity (phenylquinone test). The text has this: 2. Analgesic activity: The analgesic activity of an anti-inflammatory can be examined traditionally by the phenylquinone method based on the fact that intra-peritoneal administration to a rat of an irritant substance such as phenylquinone induces vocal reactions ("squirring") in the animal.
From the number of these reactions one judges the pain sensitivity.

Data set [4] in a line: Osteolathyrism in the rabbit (aminoacetonitrile). The data set is classed as in vivo. How it is done: B. Tests in vivo: Osteolathyrism in the rabbit.
Osteolathrism consists of inducing into young rabbits a dystrophy of the bone joint system, administering every day aminoacetonitrile by i.p. means, in the quantity of 100 mg/kg of body weight. With this treatment, in about 30 days, the following changes are shown in the rabbit:
Loss of weight (related to the checks physiologically treated), ptosis of the auricular pavilion, loss of fur, deformation of the front and rear limbs, deterioration of the general condition.
All this takes place because the aminoacetonitrile is a collagen tissue poison which changes the biochemical composition of the joint cartilages and the bones.
An evaluation of the therapeutic activity can be made either by biochemical evaluation, i.e. by measuring the quantity of aminosugars in these tissues, or by considering only the general symptoms, which are proportional to the diminution of the aminosugars.
In Table 5 this latter evaluation is reported, in which every symptom was evaluated by allotting it a number from 0 to 4, 4 indicating the maximum amount of damage and 0 indicating no damage.
On Table 5 there are given the results of treatment evaluated on the 25th day, comparing the groups treated only with a physiological solution, only with aminoacetonitrile, with aminoacetonitrile and CR 604, with aminoacetonitrile and Indometacin in the prescribed doses.
Each group consisted of 8 animals.

Another data set has as its system uropepsinogene. The data set is classed as in vivo, human. How it is done: (§1) Thus for example comparing CR 604 administered in capsules of 75 mg (6 per day), with Indometacin in capsules of 25 mg (6 per day), i.e. in approximately equimolecular doses on a group of 60 subjects treated (30 with CR 604 and 30 with Indometacin, one notes that (see Table 7):
Gastric secretion of pepsin is increased by agents which irritate and damage the gastric mucosa.

The next data set relates to fibroblast culture. Put plainly: Production of mucopolysaccharides from fibroblast culture in vitro. The data set is classed as cell-based. The following applies: Fibroblast, 240 h, read-out: Mucopolysaccharide products at the tenth day of incubation; for activity at 10 µg/mL: 10 μg/ml of culture liquid. How it is done: a. Tests in vitro: These tests consist of the cultivation in vitro, i.e., outside the organism, of tissue of the same embriological origin in relation to the osteoarticular. Upon the growth of this tissue there is then measured the activities of the various drugs. The units of measurement of these activities is the production of glucosaminoglicanes (mucopolysaccharides measured by the turbidimetric method).
The compounds which form the subject of this invention were evaluated according to this test and compared with known anti-inflammatories.

Data set [5] in a line: Pellets-induced granuloma test (cotton pellets). The data set is classed as in vivo, rat. Conditions: Rattus norvegicus, po, read-out: ED50 per os, acute anti-inflammatory activity (granuloma test). As to the method: 1b. Pellets-induced granuloma test:
Another important test for the evaluation of an anti-inflammatory is that of cotton pellets. This consists of planting a sterile cotton pellet under the rat's back skin.
This pellet is left in situ for a week while the animals are treated daily with various doses of the drug being examined. Evaluation is effected by weighing the pellets taken at the given time and dried, comparing the weight of those of the treated animals with the checks.

A further data set concerns urinary calcium. The data set is classed as in vivo, human. As to the method: as §1
c. […] Excretion of calcium is related to the destruction of the fibrils of the proteic bone matrix which thus also loses the calcium deposited upon it.
The administration of known anti-inflammatories brings about the lysis of these fibrils with loss of calcium.

The format of data set [6] is in vivo, human. The following applies: for gastric disturbances (subjects treated): Indometacin capsules of 25 mg. As to the method: Thus for example comparing CR 604 administered in capsules of 75 mg (6 per day), with Indometacin in capsules of 25 mg (6 per day), i.e. in approximately equimolecular doses on a group of 60 subjects treated (30 with CR 604 and 30 with Indometacin, one notes that (see Table 7): […]

Where [7] appears, read: rat, oral 1 hour before carragheen 1%, paws weighed after two hours.
Where [8] appears, read: oral, fasted 12 hours, killed 4 hours after administration, read-out: ED50 gastrolesive.
The mark [9] stands for this setting: score 0 (no damage) to 4 (maximum damage), 5 mg/kg/day i.p. + aminoacetonitrile 100 mg/kg/day, 25 days.
The mark [10] stands for this setting: after one week, CR 604 75 mg or Indometacin 25 mg capsules, 6 per day.
The mark [11] stands for this setting: after three weeks, CR 604 75 mg or Indometacin 25 mg capsules, 6 per day.

Each structure is given as a SMILES string. Where “and” joins values, the source holds several entries; their conditions need not be identical. Identical values can stand only once. Counter-ions that a name gives are not always drawn. Like-named read-outs stand apart in the source and are kept apart here.

For orientation: solubility means the concentration that dissolves in the medium under given conditions. As for `CCCN(CCC)C(=O)C(CCC(=O)OCCCN1CCN(CCOC(=O)Cc2c(C)n(C(=O)c3ccc(Cl)cc3)c3ccc(OC)cc23)CC1)NC(=O)c1ccccc1` (racemic) [CR 604 di-hydrochloride, N'-2-[1-(p-chlorobenzoyl)-5-methoxy-2-methyl-3-indoleacetoxy]ethyl-N-3-(N-benzoyl-N', N'-di-n-propyl-DL-isoglutaminoyl)-oxypropyl-piperazine], in the data set “Solubility”, the solubility in acetone entry is given as “Fairly soluble”, the solubility in ethanol entry is reported as “Soluble” and the solubility in methanol result is given as “Soluble”. For the same compound, the “solubility in water, in words” value in the data set “Solubility” (water) is on record as “Hardly soluble”. In the data set “Solubility” (water, 25°), this compound yielded a solubility of around 5000 µg/mL.
On to `CCCN(CCC)C(=O)C(CCC(=O)OCCCN1CCN(CCOC(=O)Cc2c(C)n(C(=O)c3ccc(Cl)cc3)c3ccc(OC)cc23)CC1)NC(=O)c1ccccc1` (racemic) [CR 604 dioxalate, N'-2-[1-(p-chlorobenzoyl)-5-methoxy-2-methyl-3-indoleacetoxy]ethyl-N-3-(N-benzoyl-N', N'-di-n-propyl-DL-isoglutaminoyl)-oxypropyl-piperazine], for which, in “Solubility”, the solubility in acetone entry was “slightly soluble”, the solubility in ethanol result is “slightly soluble” and the solubility in methanol entry is on record as “slightly soluble”. Further, the “solubility in water, in words” value in “Solubility” (water) is recorded as “Insoluble”.
Usually ED50 stands for the midpoint of the dose-response relation. Take `CCCN(CCC)C(=O)C(CCC(=O)OCCCN1CCN(CCCOC(=O)Cc2c(C)n(C(=O)c3ccc(Cl)cc3)c3ccc(OC)cc23)CC1)NC(=O)c1ccccc1` (racemic) [CR 613 (di-maleate), N'-3-[1(p-chlorobenzoyl)-5-methoxy-2-methyl-3-indoleacetoxy]-propyl-N-3-(N-benzoyl-N',N'-di-n-propyl-DL-isoglutaminoyl)-oxypropyl-piperazine]: in the data set “Solubility”, the solubility in acetone entry was “slightly soluble”, the solubility in ethanol result is reported as “slightly soluble” and the solubility in methanol entry is “more soluble”. In addition, the “solubility in water, in words” value in the data set “Solubility” (water) was “Insoluble”. Besides, the ED50 in data set [1] (setting [7]) is 13.6 µmol/kg and 14.9 mg/kg. Moreover, in data set [2] (setting [8]), the TD50 at 4 h came out at 277 µmol/kg. Besides, the TD50 at 4 h in data set [2] (po) was found to be 303 mg/kg.
For the compound `CCCN(CCC)C(=O)C(CCC(=O)OCCN1CCN(CCOC(=O)Cc2c(C)n(C(=O)c3ccc(Cl)cc3)c3ccc(OC)cc23)CC1)NC(=O)c1ccccc1` (racemic) [CR 626 (di-maleate), N'-2-[1-(p-chlorobenzoyl)-5-methoxy-2-methyl-3-indoleacetoxy]-ethyl-N-2-(N-benzoyl-N',N'-di-n-propyl-D,L-isoglutaminoyl)-oxyethyl-piperazine], in the data set “Solubility”, the solubility in acetone entry is reported as “slightly soluble”, the solubility in ethanol entry is given as “slightly soluble” and the solubility in methanol entry is on record as “more soluble”. For the same compound, the “solubility in water, in words” value in “Solubility” (water) is on record as “Insoluble”. The ED50 in data set [1] (setting [7]) was 15 µmol/kg and 16 mg/kg. The TD50 at 4 h in [2] (setting [8]) turned out to be 342 µmol/kg. Moreover, the TD50 at 4 h in [2] (po) was found to be 363 mg/kg.
Take `CC(=O)Oc1ccccc1C(=O)O` [Acetylsalicylic ac.]: the ED50 in data set [1] (Rattus norvegicus, po) was 1250 µmol/kg and 226 mg/kg.
With `CC(C)Cc1ccc(C(C)C(=O)O)cc1` (centres unmarked) [Ibuprofen], the ED50 in data set [1] (setting [7]) was 436 µmol/kg and 90 mg/kg.
`COc1ccc2c(c1)c(CC(=O)O)c(C)n2C(=O)c1ccc(Cl)cc1` [Indometacin]: the 50% effective dose (ED50) in data set [3] (Rattus norvegicus, po) is 5.6 µmol/kg and 2 mg/kg; in data set [5], 23.5 µmol/kg and 8.41 mg/kg; in [1] (Rattus norvegicus, po), 17.3 µmol/kg and 6.2 mg/kg. The “effect on aminoacetonitrile symptoms, in words” value in [4] (rabbit) is listed as “cannot prevent the occurrence of these conditions”. For the same compound, the “Deformed gait of back legs” value in [4] (setting [9]) is 1.6. For the same compound, the “Deformed gait of front legs” value in [4] (setting [9]) turned out to be 3.2. Further, in data set [4] (setting [9]), the “General Condition of Animal” value was 3.8. Also, the Loss of fur in [4] (setting [9]) is on record as 3. Also, the Loss of weight in [4] (setting [9]) was determined as 3.5. In addition, in [4] (setting [9]), the “Ptosis of auricular pavilion” value was found to be 1.4. Further, the Uropepsinogene in the data set on uropepsinogene (setting [10]) was 208.1 equivalent mg of tyrosine per; in the data set on uropepsinogene (setting [11]), 345.7 equivalent mg of tyrosine per; with uropepsinogene (before treatment), 164.7 equivalent mg of tyrosine per. Further, the “uropepsinogene in urine, in words” value with uropepsinogene (human) is given as “increases”. Also, the activity at 2 µg/mL with fibroblast culture is 78%. For the same compound, the Urinary calcium was 137 mg/1000 cc of urine in the data set with urinary calcium (setting [10]), 148 mg/1000 cc of urine in the data set with urinary calcium (setting [11]) and 126 mg/1000 cc of urine with urinary calcium (before treatment). The “excretion of urinary calcium, in words” value in the data set with urinary calcium (human) is “tendency to an increase”. For the same compound, the TD50 at 4 h in data set [2] (setting [8]) was 33.5 µmol/kg and 12 mg/kg. In [2] (po), the “gastrolesive dose, in words” value is listed as “very low”. The “gastric disturbances (subjects treated)” value was 46.6% in data set [6] (after 1 week of treatment, 6 per day) and 53.3% in data set [6] (after 3 weeks of treatment, 6 per day). The Epigastric pain in data set [6] (after 3 weeks, CR 604 75 mg or Indometacin 25 mg capsules, 6 per day) is 53.3 % of patients in pain; in [6] (setting [10]), 46.6 % of patients in pain; in data set [6] (before treatment), 0 % of patients in pain.
In the case of `Cc1cccc(Nc2ccccc2C(=O)O)c1C` [Mephenamic ac.], the activity at 10 µg/mL in the data set with fibroblast culture stood at 58%. For the same compound, in data set [1] (setting [7]), the ED50 is 439 µmol/kg and 106 mg/kg.
Consider `CCCCC1C(=O)N(c2ccccc2)N(c2ccccc2)C1=O` [Phenylbutazone], for which the median effective dose (ED50) in data set [3] (rat, oral) was 324 µmol/kg and 100 mg/kg; in [1] (setting [7]), 464 µmol/kg and 143 mg/kg. The activity at 10 µg/mL in the data set on fibroblast culture is 58%.

The record behind these values is patent US3985878A, “Anti-inflammatory and antirheumatic compounds and preparation” (priority 1974, dated 1976).
